Data published in publication PMC10859961, “Ir(III) Half-Sandwich Photosensitizers with a π-Expansive Ligand for Efficient Anticancer Photodynamic Therapy” (Journal of Medicinal Chemistry, 2024).
Read-outs that look alike come from different tables or passages of the source.

Legend:
[1] = 1O2 quantum yield determination with ABDA; settings: H2O/DMSO (95:5); 470 nm blue light
Method: Fresh stock air-equilibrated solutions of photosensitizers 1–2 and 7–8 (1.00 × 10^–3 M) and ABDA (6.00 × 10^–4 M) in H2O/DMSO (95:5) were prepared. In a quartz cell, 0.50 mL of ABDA solution, 0.03 mL of complex solution, and 2.47 mL of H2O/DMSO (95:5) were mixed to prepare a final solution with 1.00 × 10^–4 M ABDA and 1.00 × 10^–5 M complex. The final solutions were studied by recording UV–vis absorption spectra at room temperature under blue light irradiation (λexc = 470 nm, “Medusa” photoreactor) for 30 s irradiation intervals during a total exposure period of 5 min. Absorption UV–vis spectra were recorded after every irradiation interval.
The consumption of ABDA probe was measured by monitoring its absorbance intensity decrease at 402 nm with irradiation time. ^1O2 generation quantum yield (ϕΔ) was calculated from eq 1 using Rose Bengal or [Ru(bpy)3]^2+ as reference. In this case, the ϕΔ values of the references in H2O/DMSO (95:5) are 0.76 for Rose Bengal[73] and 0.18 for [Ru(bpy)3]Cl2.[136] The reproducibility of the results was confirmed by performing each experiment three times.

A549 cells = experiment: Intracellular ROS production (CM-H2DCFDA, flow cytometry); type: cell-based, human; settings: for elevation of ROS levels (median fluorescence): 10 nM, 4 h then blue light 1 h, vs untreated control; for increase in cellular ROS content: complexes at IC50,dark, 5 h, no irradiation
Method: A549 cells were seeded onto 24-well plates (5 × 10^4 cells/well) 24 h before the experiment. The cells were incubated for 4 h with complexes 2, 4, 6, and 8 at 10 nM and then photoactivated or kept in the dark for an additional hour. In addition, the cells were treated for 5 h with the complexes at the corresponding IC50,dark without irradiation. The cells exposed for 30 min to 0.5 μM FeCl2 and 0.04% H2O2, as ROS inducers, were used as positive control. After the treatments, the cells were washed with PBS and harvested by trypsinization. Intracellular ROS were detected by incubation with the chloromethyl 2′,7′-dichlorodihydrofluorescein diacetate (CM-H2DCFDA; Invitrogen) probe at 2.5 μM for 30 min at 37 °C. After washing with PBS, the median fluorescence of 1 × 10^4 cells was measured with a NovoCyte flow cytometer (Agilent Technologies) equipped with the NovoExpress software. The fold increase versus control untreated cells was determined for each treatment in three independent experiments.

[2] = system: porcine red blood cells (RBC); experiment: Hemolytic activity (hemoglobin release); type: cell-based; settings: dark, 1 hour
Method: The hemolytic activities of the complexes were determined by measuring hemoglobin release from porcine red blood cells (RBC). First, fresh porcine blood commercially obtained was diluted to 5% v/v in PBS solution and washed three times with PBS by centrifugation at 1000 rcf for 10 min. Then, RBC suspension (150 μL) was mixed with 150 μL of each complex at concentrations ranging from 1 to 50 μM. A solution of 0.2% Triton X-100 in PBS was used as positive control to induce complete hemolysis. PBS alone was used as negative control. Samples were incubated at 37 °C for 1 h in an orbital shaker (50 rpm) and then centrifuged at 3500 rcf for 10 min. 80 μL aliquots of the supernatant were transferred to a 96-well plate and diluted with 80 μL of Milli-Q water. Hemolysis was evaluated by measuring the absorbance of the samples at 540 nm with a Synergy 4 plate reader (BioTek, Winooski). The percentage of hemolysis (H) was calculated using eq 4: [drawing 25] 4 where As is the absorbance for a given sample, An is the absorbance for the negative control, and Ap is the absorbance for the positive control. Each sample was tested in triplicate.

PC-3 = experiment: CyQUANT cell viability assay, dark or blue light; type: cell-based, human; settings: for IC50 / PI (IC50,dark/IC50,light): PC-3, CyQUANT; for IC50: 48 h; for PI (IC50,dark/IC50,light): blue light 460 nm; for PI/Dose: PC‐3, 460 nm, dose 24.1 J cm‐2, PI from CyQUANT
Method: (§1) Cells were cultured in 96-well plates at a density of 3000 (A549), 2500 (HeLa), or 5000 (PC-3, 1BR.3.G, and MRC-5) cells per well in cell culture medium and allowed to attach for 24 h. Solutions of the complexes at different concentrations were prepared for cell treatments. In all cases, the solid compounds were weighed using an analytical balance (Mettler Toledo AX205DR) to ensure precise measurements. Subsequently, 5 mM solutions were prepared using DMSO. Solutions were then diluted in water to reach a concentration of 1 mM and then, aliquots were taken and diluted in culture medium to obtain solutions ranging from 0 to 50 μM. […] The cells were treated with these solutions in dark conditions or following the photoactivation protocol (see below). 48 h later the treatments were removed, and cells were washed with phosphate-buffered saline (PBS).
(§2) Initially, the effect of the complexes on the cell viability was determined by the 3-(4,5-dimethylthiazol-2-yl)-2,5-diphenyltetrazolium bromide (MTT) assay.[147] The cells were incubated for 2 h with 100 μL of culture medium together with 10 μL of MTT (Sigma-Aldrich) at 0.5 mg/mL. After discarding the medium, DMSO was added to each well to dissolve the purple formazan crystals. The absorbance of each well was determined on a Multiscan Plate Reader (Synergy 4, Biotek, Winooski) at a wavelength of 570 nm. Cell viability was also assessed using the CyQUANT Direct Cell Proliferation Assay (Thermo Fisher Scientific), following the manufacturer’s instructions. Briefly, after the treatments, the cells were washed with PBS, and an equal volume of culture medium and CyQUANT mix was added to each well. The plates were then incubated for 1 h at 37 °C. Subsequently, the fluorescence intensity was bottom read using a Multiscan Plate Reader (Synergy 4, Biotek, Winooski) with excitation and emission filters of 485 and 528 nm, respectively. In both assays, at least three replicates were measured for each treatment. The concentration that reduces the cell viability by 50% (IC50) was established using the Gen5 software (BioTek). Three independent experiments were carried out for each compound. […] The phototoxicity index (PI = IC50,dark/IC50,light) was determined.
(§3) To assess the photodynamic activity of the complexes, cells were incubated with the complexes for 4 h to enable their intracellular accumulation. The cells were then irradiated with light with a wavelength of 460 nm (blue), 530 nm (green), or 655 nm (red) for 1 h using a LED system (LuxLight) with an effective power of 6.7 mW cm^–2, which provides a total light dose of 24.1 J cm^–2. The LED system was positioned at 25 mm from the cell culture plates.

MRC-5 = experiment: CyQUANT cell viability assay, dark or blue light; type: cell-based, human; settings: for PI (IC50,dark/IC50,light): MRC-5, blue light 460 nm; for IC50: 48 h
Method: as §1, §2, §3

1BR.3.G = experiment: CyQUANT cell viability assay, dark or blue light; type: cell-based, human; settings: for IC50: 48 h; for PI (IC50,dark/IC50,light): blue light 460 nm
Method: as §1, §2, §3

[3] = blue light 460 nm 1 h (24.1 J cm^–2), read-out: IC50,light
[4] = MRC-5, blue light 460 nm 1 h (24.1 J cm^–2), read-out: IC50,light
[5] = MRC-5 nonmalignant lung fibroblasts, dark, read-out: IC50,dark
[6] = 1BR.3.G nonmalignant fibroblasts, dark, read-out: IC50,dark
[7] = 1BR.3.G, blue light 460 nm 1 h (24.1 J cm^–2), read-out: IC50,light

SMILES	1O2 generation quantum yield (ϕΔ), ABDA [1]	elevation of ROS levels (median fluorescence) (A549 cells)	increase in cellular ROS content (A549 cells)	Hemolytic activity ([2]; 1 μM)	Hemolytic activity ([2]; 5 μM)	Hemolytic activity ([2]; 10 μM)	Hemolytic activity ([2]; 25 μM)	IC50 (PC-3; [3])	PI (IC50,dark/IC50,light) (PC-3)	IC50 (PC-3; dark, read-out: IC50,dark)	PI/Dose (PC-3)	PI (IC50,dark/IC50,light) (MRC-5)	IC50 (MRC-5; [4])	IC50 (MRC-5; [5])	IC50 (1BR.3.G; [6])	PI (IC50,dark/IC50,light) (1BR.3.G; 1BR.3.G)	IC50 (1BR.3.G; [7])	PI/Dose (PC-3; listed as 4)	PI/Dose (PC-3; listed as Complex 4)
Cc1c(C)c(C)[c-](C)c1C.F[B-](F)(F)F.c1ccc(Cn2cc[n+]([Ir]3[c]4cccc5c6nc7ccccc7nc6c6ccc[n+]3c6c45)c2)cc1 [complex 7, [(η^5-C5Me5)Ir(bzIm)(pbpz)]BF4]	0.0526	–	–	–	–	–	–	–	–	–	–	–	–	–	–	–	–	–	–
Cc1c(C)c(C)[c-](C)c1C.[Cl][Ir]1[c]2cccc3c4nc5ccccc5nc4c4ccc[n+]1c4c23 [complex 1, [(η^5-C5Me5)IrCl(pbpz)]]	0.1913	–	–	–	–	–	–	–	–	–	–	–	–	–	–	–	–	–	–
Cc1c(C)c(C)[c-](C)c1C.F[B-](F)(F)F.c1ccc(Cn2cc[n+]([Ir]3[c]4cccc5c6nc7cc8ccccc8cc7nc6c6ccc[n+]3c6c45)c2)cc1 [complex 8, [(η^5-C5Me5)Ir(bzIm)(pbpn)]BF4]	0.4986	5.6 fold	1.7 fold	0.2%	1.0%	3.2%	16.3%	0.0005 ± 0.0003 µM	1179	0.64 ± 0.1 µM	48.9	863	0.0008 ± 0.0001 µM	0.68 ± 0.1 µM	0.5 ± 0.04 µM	942	0.0005 ± 0.0002 µM	–	–
Cc1c(C)c(C)[c-](C)c1C.F[B-](F)(F)F.c1ccc2cc3nc4c5ccc[n+]6c5c5[c](cccc5c4nc3cc2c1)[Ir]6[n+]1cc[nH]c1 [complex 4, [(η^5-C5Me5)Ir(Im)(pbpn)]BF4]	–	2.2 fold	2.8 fold	0%	0%	0.5%	6.7%	0.0011 ± 0.0006 µM	2022	2.28 ± 0.7 µM	–	790	0.0031 ± 0.001 µM	2.48 ± 0.2 µM	2 ± 0.4 µM	2451	0.0008 ± 0.0004 µM	84	83.9
Cc1c(C)c(C)[c-](C)c1C.F[B-](F)(F)F.c1ccc2cc3nc4c5ccc[n+]6c5c5[c](cccc5c4nc3cc2c1)[Ir]6[n+]1ccn(CCN2CCCCC2)c1 [complex 6, [(η^5-C5Me5) Ir(Imepip)(pbpn)]BF4]	–	2.4 fold	2.6 fold	0%	0%	1.0%	10.7%	0.0012 ± 0.001 µM	961	1.16 ± 0.16 µM	–	929	0.0008 ± 0.0002 µM	0.7 ± 0.08 µM	0.57 ± 0.06 µM	644	0.0009 ± 0.0003 µM	–	–
